The text below walks through data of patent US10167284B2, “Spirocyclic compounds as agonists of the muscarinic M1 receptor and/or M4 receptor” (HEPTARES THERAPEUTICS LIMITED, priority 2015, dated 2019).

Structures are written as SMILES. Where only a bound is given, the exact number is not on record here.

The target in assay [1] is T1, human muscarinic M4 receptor (Homo sapiens, UniProt P08173).
T1 construct: expressed in transfected cells
T1 sequence (P08173 1-479): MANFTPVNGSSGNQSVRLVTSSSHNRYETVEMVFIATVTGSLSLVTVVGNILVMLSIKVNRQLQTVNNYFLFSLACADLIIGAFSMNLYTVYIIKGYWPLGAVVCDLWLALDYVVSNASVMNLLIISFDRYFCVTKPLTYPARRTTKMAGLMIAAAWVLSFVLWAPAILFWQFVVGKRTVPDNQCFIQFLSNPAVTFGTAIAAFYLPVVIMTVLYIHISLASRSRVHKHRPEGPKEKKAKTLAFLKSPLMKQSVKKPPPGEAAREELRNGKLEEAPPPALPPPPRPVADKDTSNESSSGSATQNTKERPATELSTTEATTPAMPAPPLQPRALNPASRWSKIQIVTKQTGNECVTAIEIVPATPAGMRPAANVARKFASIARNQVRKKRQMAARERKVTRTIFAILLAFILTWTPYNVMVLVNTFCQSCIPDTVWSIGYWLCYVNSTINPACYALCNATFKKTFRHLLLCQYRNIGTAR
Kind of assay: Alphascreen Surefire phospho-ERK1/2 functional assay, M4. In kind it is cell-based. The conditions noted are these: for M4 % Emax cf. ACh / EC50: CHO cells stably expressing human M4; for M4 % Emax cf. ACh / Emax: Emax relative to ACh; for EC50: phospho-ERK1/2, read-out: pEC50 M4 (converted); for Emax: CHO, read-out: M4 % Emax cf. ACh, CHO cells stably expressing human M4.
Method: (§1) CHO cells stably expressing the human muscarinic M1, M2, M3 or M4 receptor were plated (25K/well) onto 96-well tissue culture plates in MEM-alpha+10% dialysed FBS. Once adhered, cells were serum-starved overnight. Agonist stimulation was performed by the addition of 5 μL agonist to the cells for 5 min (37° C.). Media was removed and 50 μL of lysis buffer added. After 15 min, a 4 μL sample was transferred to 384-well plate and 7 μL of detection mixture added. Plates were incubated for 2 h with gentle agitation in the dark and then read on a PHERAstar plate reader.
(§2) pEC50 and Emax figures were calculated from the resulting data for each receptor subtype.

For assay [2], the target named is T2, human muscarinic M1 receptor (Homo sapiens, UniProt P11229).
T2 construct: expressed in transfected cells
T2 sequence (P11229 1-460): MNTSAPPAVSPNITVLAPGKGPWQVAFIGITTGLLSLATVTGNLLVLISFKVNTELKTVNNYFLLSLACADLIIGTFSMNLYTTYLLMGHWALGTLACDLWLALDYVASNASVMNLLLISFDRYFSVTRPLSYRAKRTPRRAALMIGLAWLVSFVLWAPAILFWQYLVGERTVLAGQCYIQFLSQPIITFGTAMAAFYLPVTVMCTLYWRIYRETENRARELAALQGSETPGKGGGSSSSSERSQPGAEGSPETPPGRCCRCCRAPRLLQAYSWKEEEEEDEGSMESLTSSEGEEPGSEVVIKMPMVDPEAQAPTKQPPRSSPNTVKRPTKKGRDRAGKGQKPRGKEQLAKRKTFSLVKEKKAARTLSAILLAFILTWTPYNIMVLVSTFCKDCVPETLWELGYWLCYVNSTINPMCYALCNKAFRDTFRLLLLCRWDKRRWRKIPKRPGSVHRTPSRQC
Kind of assay: Alphascreen Surefire phospho-ERK1/2 functional assay, M1. In kind it is cell-based. The note with it: for M1 % Emax cf. ACh / EC50: CHO cells stably expressing human M1; for M1 % Emax cf. ACh / Emax: Emax relative to ACh; for EC50: phospho-ERK1/2, read-out: pEC50 M1 (converted); for Emax: CHO, read-out: M1 % Emax cf. ACh, CHO cells stably expressing human M1.
Method: as §1, §2

With `CCC1NC(=O)CC12CCN(C1CC3(CCN(C(=O)OC)C3)C1)CC2` (single isomer, unassigned) [3-4 Isomer 1], in assay [1], the “M4 % Emax cf. ACh” value is “(30) %” and the EC50 is 316 nM. For the same compound, in assay [2], the “M1 % Emax cf. ACh” value is recorded as “(35) %” and the EC50 is 3160 nM.

For the compound `CCC1NC(=O)CC12CCN(C1CC3(CCN(C(=O)OC)C3)C1)CC2` (single isomer, unassigned) [3-4 Isomer 2], in assay [1], the “M4 % Emax cf. ACh” value was “(36) %” and the EC50 is 200 nM. In assay [2], the “M1 % Emax cf. ACh” value is “(71) %” and the EC50 was 2000 nM.

For the compound `CCOC(=O)N1CCC2(CC(N3CCC4(CC3)CNC(=O)O4)C2)C1` (single isomer, unassigned) [4-3 Isomer 1], in assay [1], the “M4 % Emax cf. ACh” value is given as “(37) %” and the EC50 is 316 nM. In assay [2], the “M1 % Emax cf. ACh” value is recorded as “(91) %” and the EC50 is 251 nM.

With `CC(C)OC(=O)N1CCC2(CC(N3CCC4(CC3)CNC(=O)O4)C2)C1` (single isomer, unassigned) [4-4 Isomer 2], in assay [1], the EC50 was 398 nM and the Emax was 24%. Moreover, in assay [2], the EC50 was 631 nM and the Emax turned out to be 52%.

Regarding `CCOC(=O)N1CCC2(CC(N3CCC4(CC3)CN(C(C)C)C(=O)O4)C2)C1` (single isomer, unassigned) [4-8 Isomer 2], in assay [1], the EC50 was 398 nM and the Emax was determined as 58%. For the same compound, in assay [2], the EC50 is 1260 nM and the Emax came out at 63%.

For `CCOC(=O)N1CCC2(CC(N3CCC4(CC3)CN(CC(C)C)C(=O)O4)C2)C1` (single isomer, unassigned) [4-9 Isomer 2], in assay [1], the EC50 is 631 nM and the Emax stood at 76%. In assay [2], the EC50 was 1000 nM and the Emax was 104%.

`CCOC(=O)N1CCC2(CC(N3CCC4(CC3)OC(=O)NC4CC)C2)C1` (single isomer, unassigned) [4-12 Isomer 2]: in assay [1], the “M4 % Emax cf. ACh” value is listed as “(1) %” and the EC50 was above 20000 nM. Besides, in assay [2], the “M1 % Emax cf. ACh” value was “(0) %” and the EC50 is above 20000 nM.

As to `CCOC(=O)N1CCC2(CC(N3CCC4(CC3)OC(=O)NC4C3CCC3)C2)C1` (single isomer, unassigned) [4-15 Isomer 1 (racemic)], in assay [1], the EC50 is 158 nM and the Emax came to 87%. Besides, in assay [2], the EC50 was 501 nM and the Emax turned out to be 85%.

Regarding `CCOC(=O)N1CCC2(CC(N3CCC4(CC3)OC(=O)NC4Cc3ccccn3)C2)C1` (single isomer, unassigned) [4-19 Isomer 2 (racemic)], in assay [1], the EC50 is 794 nM and the maximum response (Emax) came to 72%. In assay [2], the EC50 is 200 nM and the Emax came out at 98%.

Take `CCOC(=O)N1CCC2(CC(N3CCC4(CC3)OC(=O)N(C)C4CC)C2)C1` (single isomer, unassigned) [4-20 Isomer 1]: in assay [1], the “M4 % Emax cf. ACh” value is reported as “(42) %” and the EC50 was 501 nM. In assay [2], the “M1 % Emax cf. ACh” value was “(57) %” and the EC50 is 2000 nM.

In the case of `CCOC(=O)N1CCC2(CC(N3CCC4(CC3)OC(=O)N(C)C4CC)C2)C1` (single isomer, unassigned) [4-20 Isomer 2], in assay [1], the “M4 % Emax cf. ACh” value was “(9) %” and the EC50 was above 20000 nM. Moreover, in assay [2], the “M1 % Emax cf. ACh” value was “(16) %” and the EC50 was above 20000 nM.

As for `CCC1N(CC)C(=O)OC12CCN(C1CC3(CCN(C(=O)OC)C3)C1)CC2` (single isomer, unassigned) [4-21 Isomer 2 (racemic)], in assay [1], the EC50 is 200 nM and the maximal effect (Emax) was 36%. For the same compound, in assay [2], the EC50 is 794 nM and the maximum response (Emax) came out at 77%.

`CCOC(=O)N1CCC2(CC(N3CCC4(CC3)OC(=O)N(CC)C4CC)C2)C1` (single isomer, unassigned) [4-22 Isomer 1]: in assay [1], the “M4 % Emax cf. ACh” value is “(18) %” and the EC50 is above 20000 nM. In assay [2], the “M1 % Emax cf. ACh” value was “(13) %” and the EC50 was above 20000 nM.

Consider `CCOC(=O)N1CCC2(CC(N3CCC4(CC3)OC(=O)N(CC)C4CC)C2)C1` (single isomer, unassigned) [4-22 Isomer 2], for which, in assay [1], the “M4 % Emax cf. ACh” value is recorded as “(2) %” and the EC50 is above 20000 nM. Further, in assay [2], the “M1 % Emax cf. ACh” value is “(1) %” and the EC50 was above 20000 nM.

For `CCCN1C(=O)OC2(CCN(C3CC4(CCN(C(=O)OCC)C4)C3)CC2)C1CC` (single isomer, unassigned) [4-23 Isomer 1], in assay [1], the “M4 % Emax cf. ACh” value is on record as “(33) %” and the EC50 is 501 nM. Besides, in assay [2], the “M1 % Emax cf. ACh” value is listed as “(9) %” and the EC50 was above 20000 nM.

For the compound `CCCN1C(=O)OC2(CCN(C3CC4(CCN(C(=O)OCC)C4)C3)CC2)C1CC` (single isomer, unassigned) [4-23 Isomer 2], in assay [1], the “M4 % Emax cf. ACh” value is on record as “(3) %” and the EC50 is above 20000 nM. In assay [2], the “M1 % Emax cf. ACh” value was “(5) %” and the EC50 is above 20000 nM.

As to `CCOC(=O)N1CCC2(CC(N3CCC4(CC3)OC(=O)N(CC3CC3)C4CC)C2)C1` (single isomer, unassigned) [4-25 Isomer 2 (racemic)], the results for the EC50 in assay [1] and in assay [2] were 126 nM and 794 nM, respectively. Moreover, the Emax amounted to 69% in assay [1] and 73% in assay [2].

In the case of `CCOC(=O)N1CCC2(CC(N3CCC4(CC3)OC(=O)NC4(C)C)C2)C1` (single isomer, unassigned) [4-27 Isomer 1], in assay [1], the “M4 % Emax cf. ACh” value is given as “(59) %” and the EC50 is 251 nM. In addition, in assay [2], the “M1 % Emax cf. ACh” value was “(65) %” and the EC50 was 10000 nM.

As to `CCOC(=O)N1CCC2(CC(N3CCC4(CC3)OC(=O)NC43CC(F)(F)C3)C2)C1` (single isomer, unassigned) [4-30 Isomer 1], in assay [1], the EC50 is 158 nM and the Emax came out at 63%. For the same compound, in assay [2], the EC50 is 1260 nM and the Emax is 49%.

Consider `CCOC(=O)N1CCC2(CC(N3CCC4(CC3)OC(=O)N(CC)C4(C)C)C2)C1` (single isomer, unassigned) [4-35 Isomer 2], for which, in assay [1], the EC50 was 31.6 nM and the maximum response (Emax) is 108%. Also, in assay [2], the EC50 was 1000 nM and the Emax turned out to be 57%.

With `CCCN1C(=O)OC2(CCN(C3CC4(CCN(C(=O)OCC)C4)C3)CC2)C1(C)C` (single isomer, unassigned) [4-37 Isomer 2], in assay [1], the “M4 % Emax cf. ACh” value is on record as “(13) %” and the EC50 was above 20000 nM. Besides, in assay [2], the “M1 % Emax cf. ACh” value was “(29) %” and the EC50 is 794 nM.

For the compound `CCOC(=O)N1CCC2(CC(N3CCC4(CC3)OC(=O)N(CC#N)C4(C)C)C2)C1` (single isomer, unassigned) [4-42 Isomer 2], in assay [1], the EC50 was 200 nM and the maximum response (Emax) amounted to 52%. Further, in assay [2], the EC50 was above 20000 nM and the Emax was found to be 16%.

Regarding `COC(=O)N1CCC2(CC(N3CCC4(CC3)OC(=O)N3CCCC34)C2)C1` (single isomer, unassigned) [4-45 Isomer 2], the values for the EC50 in assay [1] and in assay [2] were 316 nM and 1000 nM, respectively. Further, the maximal response (Emax) in assay [1] is 36%; in assay [2], 59%.

Regarding `CCOC(=O)N1CCC2(CC(N3CCC4(CC3)CC(=O)NN4C(C)C)C2)C1` (single isomer, unassigned) [6-5 Isomer 2], in assay [1], the EC50 was above 20000 nM and the Emax was determined as 20%. In addition, in assay [2], the EC50 was 2000 nM and the maximum response (Emax) was determined as 56%.

Turning to `CCOC(=O)N1CCC2(CC(N3CCC4(CC3)CC(=O)NN4Cc3ccccc3)C2)C1` (single isomer, unassigned) [6-6 Isomer 1], in assay [1], the “M4 % Emax cf. ACh” value was “(10) %” and the EC50 was above 20000 nM. Further, in assay [2], the “M1 % Emax cf. ACh” value is listed as “(36) %” and the EC50 is 501 nM.

As to `CCCN1N(C)C(=O)CC12CCN(C1CC3(CCN(C(=O)OCC)C3)C1)CC2` (single isomer, unassigned) [6-10 Isomer 2], in assay [1], the EC50 was 39.8 nM and the Emax came out at 109%. Besides, in assay [2], the EC50 was 1260 nM and the maximal effect (Emax) worked out at 90%.

Take `CCOC(=O)N1CC2(CC(N3CCC4(CC3)CNC(=O)C4)C2)C1` [Example 1-1, ethyl 6-(3-oxo-2,8-diazaspiro[4.5]dec-8-yl)-2-azaspiro[3.3]heptane-2-carboxylate]: the figures for the EC50 in assay [1] and in assay [2] were above 20000 nM and 316 nM, respectively. Further, the figures for the Emax in assay [1] and in assay [2] were 66% and 107%, respectively.
